Measured values: the supplement of paper PMC10307832

Legend:
Test in all cases: relative viability (nuclei count vs DMSO), 5 days (fraction); higher = more cells survive
ALW-II-49-7 + AZD7762 = compound: Cc1ccc(C(=O)Nc2cccc(C(F)(F)F)c2)cc1Nc1cncc(C(N)=O)c1 [ALW-II-49-7] + NC(=O)Nc1cc(-c2cccc(F)c2)sc1C(=O)N[C@H]1CCCNC1 [AZD7762] (partner 0.2 µM)
How it was run: (§1)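 Relative viability equals treated-well nuclei counts divided by vehicle-well nuclei counts. Counts came from 4× images of lung cancer cell lines grown in 1536-well plates for 5 days after pin-tool dosing on the day after seeding. Dosing used one drug alone or a fixed anchor-drug dose plus five library-drug doses (not always all listed) in √10 steps, and values are medians of duplicate plates.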

Dasatinib + Navitoclax = compound: Cc1nc(Nc2ncc(C(=O)Nc3c(C)cccc3Cl)s2)cc(N2CCN(CCO)CC2)n1 [Dasatinib] + CC1(C)CCC(c2ccc(Cl)cc2)=C(CN2CCN(c3ccc(C(=O)NS(=O)(=O)c4ccc(N[C@H](CCN5CCOCC5)CSc5ccccc5)c(S(=O)(=O)C(F)(F)F)c4)cc3)CC2)C1 [Navitoclax] (partner 0.5 µM)
How it was run: as §1

Dasatinib + Pictilisib = compound: Cc1nc(Nc2ncc(C(=O)Nc3c(C)cccc3Cl)s2)cc(N2CCN(CCO)CC2)n1 [Dasatinib] + CS(=O)(=O)N1CCN(Cc2cc3nc(-c4cccc5[nH]ncc45)nc(N4CCOCC4)c3s2)CC1 [Pictilisib] (partner 1 µM)
How it was run: as §1

Dasatinib + Alpelisib = compound: Cc1nc(Nc2ncc(C(=O)Nc3c(C)cccc3Cl)s2)cc(N2CCN(CCO)CC2)n1 [Dasatinib] + Cc1nc(NC(=O)N2CCC[C@H]2C(N)=O)sc1-c1ccnc(C(C)(C)C(F)(F)F)c1 [Alpelisib] (partner 2 µM)
How it was run: as §1

Row | Cell Line | relative viability (ALW-II-49-7 + AZD7762; first compound 0.08 µM) | relative viability (ALW-II-49-7 + AZD7762; first compound 0.253 µM) | relative viability (ALW-II-49-7 + AZD7762; first compound 0.8 µM) | relative viability (ALW-II-49-7 + AZD7762; first compound 2.53 µM) | relative viability (ALW-II-49-7 + AZD7762; first compound 8 µM) | relative viability (Dasatinib + Navitoclax; first compound 0.005 µM) | relative viability (Dasatinib + Navitoclax; first compound 0.01581 µM) | relative viability (Dasatinib + Navitoclax; first compound 0.05 µM) | relative viability (Dasatinib + Navitoclax; first compound 0.1581 µM) | relative viability (Dasatinib + Navitoclax; first compound 0.5 µM) | relative viability (Dasatinib + Pictilisib; first compound 0.005 µM) | relative viability (Dasatinib + Pictilisib; first compound 0.01581 µM) | relative viability (Dasatinib + Pictilisib; first compound 0.05 µM) | relative viability (Dasatinib + Pictilisib; first compound 0.1581 µM) | relative viability (Dasatinib + Pictilisib; first compound 0.5 µM) | relative viability (Dasatinib + Alpelisib; first compound 0.005 µM) | relative viability (Dasatinib + Alpelisib; first compound 0.01581 µM) | relative viability (Dasatinib + Alpelisib; first compound 0.05 µM) | relative viability (Dasatinib + Alpelisib; first compound 0.1581 µM) | relative viability (Dasatinib + Alpelisib; first compound 0.5 µM)
1 | HARA | 0.325 | 0.28 | 0.3 | 0.375 | 0.347 | 1.15 | 0.974 | 1 | 0.596 | 0.326 | 0.204 | 0.259 | 0.346 | 0.157 | 0.0728 | 0.778 | 0.723 | 0.57 | 0.27 | 0.193
2 | NCI-H1975 | 0.743 | 0.815 | 0.673 |  | 0.589 | 0.895 | 1.02 | 1.03 | 0.412 | 0.308 | 0.315 | 0.225 | 0.207 | 0.0981 | 0.201 | 0.579 | 0.437 | 0.361 | 0.21 | 0.199
3 | NCI-H2085 | 0.987 | 1.06 | 0.988 | 1.06 | 0.834 | 0.757 | 0.929 | 0.737 | 0.411 | 0.245 | 0.399 | 0.31 | 0.242 | 0.218 | 0.167 | 0.874 | 0.794 | 0.596 | 0.292 | 0.2
4 | NCI-H3122 | 1.05 | 0.853 | 1.06 | 1.05 | 1.03 | 1.03 | 1.01 | 1.04 | 0.977 | 0.792 | 0.704 | 0.753 | 0.755 | 0.614 | 0.445 | 0.835 | 0.858 | 0.87 | 0.693 | 0.718
5 | NCI-H1651 | 0.465 | 0.466 | 0.474 | 0.397 | 0.317 | 0.962 | 0.806 | 0.759 | 0.76 | 0.611 | 0.716 | 0.499 | 0.46 | 0.423 | 0.419 | 0.899 | 0.853 | 0.66 | 0.544 | 0.619
6 | NCI-H441 | 1.18 | 1.24 | 1.07 | 0.817 | 1.1 | 0.579 | 0.544 | 0.456 | 0.241 | 0.135 | 0.555 | 0.437 | 0.381 | 0.211 | 0.145 | 0.878 | 0.874 | 0.574 | 0.355 | 0.218
7 | NCI-H2126 | 0.981 | 1.05 | 0.913 | 1 | 0.984 | 0.868 | 0.76 | 0.804 | 0.621 | 0.374 | 0.512 | 0.446 | 0.443 | 0.387 | 0.288 | 0.761 | 0.643 | 0.65 | 0.518 | 0.339
8 | RERF-LC-KJ | 1.15 | 0.995 | 0.827 | 0.975 | 0.956 | 1.11 | 0.537 | 0.855 | 0.669 | 0.656 | 0.543 | 0.518 | 0.53 | 0.398 | 0.403 | 0.823 | 0.496 | 0.665 | 0.614 | 0.432
9 | NCI-H1666 | 0.858 | 0.855 | 0.822 | 0.839 | 0.77 | 0.948 | 0.895 | 0.917 | 0.617 | 0.324 | 0.546 | 0.442 | 0.522 | 0.295 | 0.316 | 0.964 | 0.855 | 0.844 | 0.563 | 0.31
10 | PC-14 | 0.445 | 0.318 | 0.447 |  | 0.236 | 0.976 | 0.982 | 1.09 | 0.647 | 0.0883 | 0.631 | 0.458 | 0.529 | 0.232 | 0.0479 | 0.916 | 0.85 | 0.734 | 0.546 | 0.185
11 | NCI-H1915 | 0.675 | 0.678 | 0.688 | 0.636 | 0.477 | 0.803 | 0.728 | 0.75 | 0.44 | 0.261 | 0.936 | 0.84 | 0.763 | 0.463 | 0.231 | 1.01 | 0.979 | 0.933 | 0.395 | 0.311
12 | NCI-H1703 | 0.124 | 0.132 | 0.116 |  | 0.127 | 0.567 | 0.38 | 0.238 | 0.17 | 0.146 | 0.2 | 0.195 | 0.203 | 0.179 | 0.169 | 0.229 | 0.179 | 0.184 | 0.155 | 0.157
13 | NCI-H1944 | 0.801 | 0.614 | 0.359 | 0.458 | 0.498 | 1.03 | 1.07 | 0.976 | 0.695 | 0.504 | 0.308 | 0.274 | 0.274 | 0.258 | 0.268 | 0.781 | 0.725 | 0.575 | 0.289 | 0.203
14 | HCC-78 | 0.614 | 0.693 | 0.684 | 0.611 | 0.713 | 0.619 | 0.58 | 0.688 | 0.601 | 0.247 | 0.185 | 0.212 | 0.183 | 0.159 | 0.178 | 0.259 | 0.261 | 0.304 | 0.257 | 0.176
15 | PC-3 [JPC-3] | 0.738 | 0.735 | 0.68 | 0.801 | 0.672 | 0.785 | 0.818 | 0.951 | 0.788 | 0.456 | 0.881 | 0.676 | 0.734 | 0.706 | 0.317 | 1.08 | 1.09 | 1.12 | 0.966 | 0.477
16 | EKVX | 0.665 | 0.619 | 0.821 | 0.574 | 0.646 | 0.951 | 0.958 | 0.821 | 0.407 | 0.18 | 0.449 | 0.231 | 0.338 | 0.181 | 0.101 | 0.774 | 0.637 | 0.651 | 0.557 | 0.145
